This is an account of results in patent US11207312B2, “Metallo-beta-lactamase inhibitors and methods of use thereof” (priority 2017, dated 2021).

One data set concerns the target NDM-1 (Klebsiella pneumoniae, UniProt C7C422). As to the kind of experiment: biochemical. The settings on record: CCF2-FA fluorescence assay, 2 hours at 25° C. In kind it is biochemical. Summed up:
(§1)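 IC50s come from 4-parameter fits of inhibition versus inhibitor concentration, tested from 20 μM down to 0.00063 μM. Enzyme, CCF2-FA (1.25 μM) and inhibitor react 2 h at 25° C, pH 7, with 10 μM ZnSO4 and 0.005% Tween-20.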

The target in another data set is IMP-1 (Serratia marcescens, UniProt P52699). The data set is described as follows: biochemical. Particulars: CCF2-FA fluorescence assay, 2 hours at 25° C.; read-out: IMP1 IC50. The gist of the method: as §1
Another data set has as its target VIM-1 (Pseudomonas aeruginosa (strain ATCC 15692 / DSM 22644 / CIP 104116 / JCM 14847 / LMG 12228 / 1C / PRS 101 / PAO1), UniProt A0A0F7KYQ8). The data set is described as follows: biochemical. The settings on record: CCF2-FA fluorescence assay, 2 hours at 25° C.; read-out: VIM1 IC50. The gist of the method:
as §1

The next data set deals with VIM-2 (Escherichia coli, UniProt Q5U7L7). The data set is described as follows: biochemical. The settings on record: CCF2-FA fluorescence assay; read-out: VIM2 IC50.
Data set [1] has as its system Escherichia coli expressing NDM-1 (CLB30016). It counts as cell-based. The settings on record: with imipenem 1 μg/ml; 95% inhibition of bacterial growth. The gist of the method:
(§2)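 Clinical MBL-producing strains grown overnight at 35° C, diluted 1:100 into CAMHB, then exposed to test compound with imipenem at 1 μg/ml for 22–24 h at 35° C. Absorbance read-out; MITC95 is the lowest compound concentration giving 95% growth inhibition with imipenem.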

Data set [2] relates to Klebsiella pneumoniae expressing VIM-1 (IHMA599644). In kind it is cell-based. Particulars: with imipenem 1 μg/ml; 95% inhibition of bacterial growth. The gist of the method:
as §2

In data set [3] the test system is Serratia marcescens expressing IMP-1 (CL5741). It counts as cell-based. The settings on record: with imipenem 1 μg/ml; 95% inhibition of bacterial growth. The gist of the method:
as §2

For data set [4], the system named is P. aeruginosa MB9798 (efflux+, IMP-1 plasmid). The settings on record: for MB9798 MITC95 P. aeruginosa uM Efflux WT: efflux + (MB9798) strain, imipenem at 2 μg/mL, in the presence of a class A, C, D serine β-lactamase inhibitor closely related to relebactam; for Efflux ratio: fold difference between efflux+ (MB9798) and efflux− (MB9799) strains. Summed up: (§3)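 Isogenic P. aeruginosa PAO1 strains (efflux+ and multiple-efflux-pump-disrupted) carrying plasmid IMP-1, with inducible AmpC, tested by broth microdilution. Imipenem and/or ceftazidime fixed, usually at CLSI breakpoint, plus fixed class A/C β-lactamase inhibitor; titrated MBL inhibitor concentration restoring susceptibility recorded and compared between strains as efflux fold difference.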

Data set [5] has as its system P. aeruginosa MB9799 (efflux-, IMP-1 plasmid). In kind it is cell-based, Pseudomonas aeruginosa. The settings on record: efflux − (MB9799) strain; imipenem at 2 μg/mL; in the presence of a class A, C, D serine β-lactamase inhibitor closely related to relebactam. The gist of the method: as §3

The structures appear in SMILES notation.

A word on the IC50: it is the concentration at which inhibition is half-maximal.

Chain of IMP-1 (P52699 whole entry, looked up, species assumed): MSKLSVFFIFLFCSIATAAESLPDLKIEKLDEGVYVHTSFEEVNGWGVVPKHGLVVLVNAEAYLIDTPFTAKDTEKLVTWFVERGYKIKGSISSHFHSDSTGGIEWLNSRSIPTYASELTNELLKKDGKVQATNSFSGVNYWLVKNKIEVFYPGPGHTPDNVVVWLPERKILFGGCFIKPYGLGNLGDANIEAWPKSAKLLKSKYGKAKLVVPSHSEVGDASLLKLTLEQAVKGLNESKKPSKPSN
Chain of NDM-1 (C7C422 whole entry, looked up, species assumed): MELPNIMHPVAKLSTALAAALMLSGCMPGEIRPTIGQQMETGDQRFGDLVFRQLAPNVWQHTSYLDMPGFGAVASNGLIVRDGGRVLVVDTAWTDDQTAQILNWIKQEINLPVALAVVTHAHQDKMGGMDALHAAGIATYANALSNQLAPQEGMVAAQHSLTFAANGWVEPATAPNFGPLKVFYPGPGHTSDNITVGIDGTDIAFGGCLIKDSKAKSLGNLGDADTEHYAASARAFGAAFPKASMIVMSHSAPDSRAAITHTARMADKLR

As for `NS(=O)(=O)c1c(S(=O)(=O)C2CNC2)ccc(N2CCC(CCO)CC2)c1-c1nnn[nH]1` [Example 56, 6-(azetidin-3-ylsulfonyl)-3-[4-(2-hydroxyethyl)piperidin-1-yl]-2-(1H-tetrazol-5-yl)benzenesulfonamide], the IC50 against NDM-1 worked out at 0.76 nM; on IMP-1, 0.45 nM; on VIM-1 it was 0.25 nM; at VIM-2 it was 0.82 nM. The “CLB30016 E. coli MITC95 NDM” value in data set [1] stood at 6.25 µM. Besides, the “IHMA599644 K. pneumoniae MITC95 VIM” value in data set [2] came out at 6.25 µM. The “CL5741 S. marcescens MITC95 IMP” value in data set [3] is 3.13 µM. Further, the “MB9798 MITC95 P. aeruginosa uM Efflux WT” value in [4] is 6.25 µM. Moreover, in data set [4], the Efflux ratio came out at 4.00. Moreover, the “MB9799 MITC95 P. aeruginosa uM Efflux Mutant” value in data set [5] worked out at 1.56 µM.
With `NCC1CCN(c2ccc(S(=O)(=O)N[C@@H]3CCNC3)c(S(N)(=O)=O)c2-c2nn[nH]n2)C(=O)C1` (stereo partly shown) [Example 149], the IC50 was 4.46 nM on NDM-1, 104 nM on IMP-1, 0.96 nM on VIM-1 and 48.1 nM at VIM-2. Besides, the “CLB30016 E. coli MITC95 NDM” value in data set [1] came to 0.20 µM. In addition, in data set [2], the “IHMA599644 K. pneumoniae MITC95 VIM” value worked out at 1.56 µM. Moreover, in data set [3], the “CL5741 S. marcescens MITC95 IMP” value was determined as 1.56 µM. Moreover, in [4], the “MB9798 MITC95 P. aeruginosa uM Efflux WT” value was found to be 6.25 µM. The Efflux ratio in data set [4] is listed as 2.00. The “MB9799 MITC95 P. aeruginosa uM Efflux Mutant” value in data set [5] came to 3.13 µM.
Regarding `NS(=O)(=O)c1c(S(=O)(=O)N[C@@H]2CCNC2)ccc(N2CCC(CO)CC2)c1-c1nnn[nH]1` [Example 101, 4-[4-(hydroxymethyl)piperidin-1-yl]-N1-[(3R)-pyrrolidin-3-yl]-3-(1H-tetrazol-5-yl)benzene-1,2-disulfonamide], the IC50 against NDM-1 worked out at 0.08 nM; on IMP-1, 0.16 nM; at VIM-1 it was 0.09 nM; at VIM-2 it was 0.39 nM. The “CLB30016 E. coli MITC95 NDM” value in [1] was 0.78 µM. Further, the “IHMA599644 K. pneumoniae MITC95 VIM” value in data set [2] turned out to be 3.13 µM. Moreover, in [3], the “CL5741 S. marcescens MITC95 IMP” value is 1.56 µM. Further, the “MB9798 MITC95 P. aeruginosa uM Efflux WT” value in data set [4] came out at 1.56 µM. Moreover, the Efflux ratio in data set [4] is 2.00. For the same molecule, in [5], the “MB9799 MITC95 P. aeruginosa uM Efflux Mutant” value was 0.78 µM.
As for `N[C@H]1CCCN(c2ccc(S(=O)(=O)N[C@@H]3CCNC3)c(S(N)(=O)=O)c2-c2nn[nH]n2)C1=O` [Example 156, 4-((S)-3-amino-2-oxopiperidin-1-yl)-N1-((R)-pyrrolidin-3-yl)-3-(2H-tetrazol-5-yl)benzene-1,2-disulfonamide], the half-inhibitory concentration (IC50) against NDM-1 came to 4.64 nM; on IMP-1 it was 67.7 nM; on VIM-1, 2.14 nM; on VIM-2 it was 7.16 nM. Also, the “CLB30016 E. coli MITC95 NDM” value in [1] is 0.39 µM. Besides, the “IHMA599644 K. pneumoniae MITC95 VIM” value in data set [2] stood at 1.56 µM. In data set [3], the “CL5741 S. marcescens MITC95 IMP” value turned out to be 1.56 µM. In data set [4], the “MB9798 MITC95 P. aeruginosa uM Efflux WT” value came to 12.50 µM. Also, the Efflux ratio in data set [4] is given as 8.00. The “MB9799 MITC95 P. aeruginosa uM Efflux Mutant” value in data set [5] was found to be 1.56 µM.
As to `CNCC1CCN(c2ccc(S(=O)(=O)N[C@@H]3CCNC3)c(S(N)(=O)=O)c2-c2nnn[nH]2)CC1` [Example 74, 4-{4-[(methylamino)methyl]piperidin-1-yl}-N1-[(3R)-pyrrolidin-3-yl]-3-(1H-tetrazol-5-yl)benzene-1,2-disulfonamide], the IC50 against NDM-1 is 3 nM; at IMP-1, 6.8 nM; at VIM-1, 0.45 nM; at VIM-2 it was 6.86 nM. Further, in data set [1], the “CLB30016 E. coli MITC95 NDM” value is 0.78 µM. Also, in data set [2], the “IHMA599644 K. pneumoniae MITC95 VIM” value was determined as 3.13 µM. In data set [3], the “CL5741 S. marcescens MITC95 IMP” value came out at 1.56 µM. The “MB9798 MITC95 P. aeruginosa uM Efflux WT” value in data set [4] was 1.56 µM. Also, in data set [4], the Efflux ratio amounted to 2.00. Moreover, the “MB9799 MITC95 P. aeruginosa uM Efflux Mutant” value in data set [5] stood at 0.78 µM.
On to `NS(=O)(=O)c1c(S(=O)(=O)N[C@@H]2CCNC2)ccc(NCC2CCNCC2)c1-c1nn[nH]n1` [Example 183, (R)-4-((piperidin-4-ylmethyl)amino)-N1-(pyrrolidin-3-yl)-3-(2H-tetrazol-5-yl)benzene-1,2-di sulfonamide], for which the half-maximal inhibitory concentration (IC50) against NDM-1 was 6.26 nM; at IMP-1, 12.4 nM; at VIM-1, 5.89 nM; at VIM-2, 69.7 nM. The “CLB30016 E. coli MITC95 NDM” value in data set [1] is 1.17 µM. Further, in [2], the “IHMA599644 K. pneumoniae MITC95 VIM” value was 2.34 µM. In addition, in data set [3], the “CL5741 S. marcescens MITC95 IMP” value came to 1.56 µM. Also, the “MB9798 MITC95 P. aeruginosa uM Efflux WT” value in [4] worked out at 3.13 µM. In data set [4], the Efflux ratio is given as 2.67. Also, the “MB9799 MITC95 P. aeruginosa uM Efflux Mutant” value in data set [5] stood at 1.17 µM.
`N[C@H]1CCN(c2ccc(S(=O)(=O)N[C@@H]3CCNC3)c(S(N)(=O)=O)c2-c2nn[nH]n2)C[C@H]1F` [Example 199, 4-((3R,4S)-4-amino-3-fluoropiperidin-1-yl)-N1-((R)-pyrrolidin-3-yl)-3-(2H-tetrazol-5-yl)benzene-1,2-disulfonamide]: the IC50 was 1.69 nM at NDM-1, 6.11 nM on IMP-1, 0.18 nM on VIM-1 and 4.27 nM at VIM-2. For the same molecule, the “CLB30016 E. coli MITC95 NDM” value in data set [1] was found to be 0.39 µM. For the same molecule, the “IHMA599644 K. pneumoniae MITC95 VIM” value in data set [2] worked out at 0.39 µM. Also, in data set [3], the “CL5741 S. marcescens MITC95 IMP” value came out at 0.10 µM. The “MB9798 MITC95 P. aeruginosa uM Efflux WT” value in [4] amounted to 0.78 µM. Besides, the Efflux ratio in [4] was 1.00. In addition, the “MB9799 MITC95 P. aeruginosa uM Efflux Mutant” value in data set [5] was found to be 0.78 µM.
For the molecule `NC[C@@H](O)CNS(=O)(=O)c1ccc(N2CCC(c3ncc[nH]3)CC2)c(-c2nn[nH]n2)c1S(N)(=O)=O` [Example 201, (R)-4-(4-(1H-imidazol-2-yl)piperidin-1-yl)-N1-(3-amino-2-hydroxypropyl)-3-(2H-tetrazol-5-yl)benzene-1,2-disulfonamide], the IC50 at NDM-1 is 1.83 nM; on IMP-1, 0.77 nM; on VIM-1 it was 0.26 nM; on VIM-2, 0.64 nM. Further, in [1], the “CLB30016 E. coli MITC95 NDM” value came to 0.39 µM. Further, the “IHMA599644 K. pneumoniae MITC95 VIM” value in [2] amounted to 1.56 µM. Besides, the “CL5741 S. marcescens MITC95 IMP” value in data set [3] was determined as 0.78 µM. Also, the “MB9798 MITC95 P. aeruginosa uM Efflux WT” value in data set [4] turned out to be 1.56 µM. Besides, the Efflux ratio in [4] was found to be 2.00. Moreover, in data set [5], the “MB9799 MITC95 P. aeruginosa uM Efflux Mutant” value turned out to be 0.78 µM.
Regarding `NC[C@@H](O)CNS(=O)(=O)c1ccc(N2CC[C@@H](CN)[C@@H](F)C2)c(-c2nn[nH]n2)c1S(N)(=O)=O` (racemic) [Example 6], the half-maximal inhibitory concentration (IC50) came out at 1.12 nM at NDM-1, 3.38 nM at IMP-1, 0.17 nM at VIM-1 and 4.19 nM on VIM-2. Further, the “CLB30016 E. coli MITC95 NDM” value in data set [1] is 0.20 µM. Further, the “IHMA599644 K. pneumoniae MITC95 VIM” value in data set [2] turned out to be 0.78 µM. In addition, the “CL5741 S. marcescens MITC95 IMP” value in [3] was 0.20 µM. In [4], the “MB9798 MITC95 P. aeruginosa uM Efflux WT” value came out at 0.78 µM. Moreover, the Efflux ratio in [4] amounted to 2.00. Further, in [5], the “MB9799 MITC95 P. aeruginosa uM Efflux Mutant” value was 0.39 µM.
For the molecule `NS(=O)(=O)c1c(S(=O)(=O)N[C@@H]2CCNC2)ccc(N2CCCC(=O)C2=O)c1-c1nn[nH]n1` [Example 151, (R)-4-(2,3-dioxopiperidin-1-yl)-N1-(pyrrolidin-3-yl)-3-(2H-tetrazol-5-yl) benzene-1,2-disulfonamide], the IC50 at NDM-1 came to 0.53 nM; on IMP-1 it was 6.7 nM; on VIM-1, 1.15 nM; on VIM-2, 5.92 nM. Also, the “CLB30016 E. coli MITC95 NDM” value in data set [1] is 0.39 µM. Besides, in data set [2], the “IHMA599644 K. pneumoniae MITC95 VIM” value is 6.25 µM. Further, in [3], the “CL5741 S. marcescens MITC95 IMP” value amounted to 1.56 µM. In addition, the “MB9798 MITC95 P. aeruginosa uM Efflux WT” value in [4] was found to be 12.50 µM. Further, the Efflux ratio in [4] amounted to 4.00. Moreover, the “MB9799 MITC95 P. aeruginosa uM Efflux Mutant” value in data set [5] came out at 3.13 µM.
